Data: patent US9802895B2, “Indole and benzimidazolecarboxamides as insecticides and acaricides” (BAYER CROPSCIENCE AKTIENGESELLSCHAFT, priority 2014, dated 2017)
One block for each molecule: values may come before it.

Assays:
[1] = system: L1 larvae of the Australian sheep blowfly (Lucilia cuprina); assay: Lucilia cuprina test (LUCICU); assay type: in vivo; settings: 100 ppm, after 2 days
Method in brief: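 About 20 L1 larvae placed in vessels with minced horsemeat containing compound (DMSO formulation diluted with water to test concentration). Kill in % scored after 2 days.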

[2] = system: L2 larvae of the banded cucumber beetle (Diabrotica balteata); assay: Diabrotica balteata drench test (DIABBA); assay type: in vivo; settings: 20 ppm, 8 dat
Experimental: Diabrotica balteata—Drench Test (DIABBA) Solvent: 7 parts by weight of dimethylformamide Emulsifier: 2 parts by weight of alkylaryl polyglycol ether To produce a suitable active compound formulation, 1 part by weight of active compound is mixed with the specified amounts of solvent and emulsifier, and the concentrate is diluted with water to the desired concentration, it being necessary to include the volume of soil which is drenched in the calculation. It should be ensured that a concentration of 40 ppm of emulsifier in the soil is not exceeded. To produce further test concentrations, water is used for dilution. […] After one day, 25 L2 larvae of the banded cucumber beetle (Diabrotica balteata) are added. After 8 days, the efficacy in % is determined 100% means that all 5 plants have germinated and grown; 0% means that none of the plants has emerged.

[3] = system: adult cat fleas (Ctenocephalides felis); assay: Ctenocephalides felis oral test (CTECFE); assay type: in vivo; settings: 100 ppm, oral in cattle blood, after 2 days
Method in brief: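 About 20 unfed adult fleas fed through a parafilm membrane on citrated cattle blood containing compound, added from a DMSO stock and diluted to test concentration. Kill % was scored after 2 days, where 100% means all fleas dead and 0% means none.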

[4] = system: adult houseflies (Musca domestica); assay: Musca domestica test (MUSCDO); assay type: in vivo; settings: 100 ppm, after 2 days
Method in brief: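 Ten adult houseflies housed with a sponge carrying sugar solution plus compound, formulated in DMSO and diluted with water to test concentration. Mortality (%) scored after 2 days; 100% = all flies dead.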

[5] = system: southern root-knot nematode (Meloidogyne incognita); assay: Meloidogyne incognita test; assay type: in vivo; settings: 20 ppm, after 14 days
Experimental: Meloidogyne incognita Test Solvent: 125.0 parts by weight of acetone To produce a suitable active compound formulation, 1 part by weight of active compound is mixed with the stated amount of solvent and the concentrate is diluted with water to the desired concentration. Vessels are filled with sand, active compound solution, an egg/larvae suspension of the southern root-knot nematode (Meloidogyne incognita) and lettuce seeds. The lettuce seeds germinate and the plants develop. The galls develop on the roots. After 14 days, the nematicidal efficacy in % is determined by the formation of galls. 100% means that no galls were found; 0% means that the number of galls on the treated plants corresponds to the untreated control.

[6] = system: greenhouse red spider mite (Tetranychus urticae); assay: Tetranychus urticae spray test, OP-resistant (TETRUR); assay type: in vivo; settings: 100 g/ha, spray, after 6 days
Method in brief: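 Bean (Phaseolus vulgaris) leaf discs infested with all stages of OP-resistant Tetranychus urticae were sprayed with compound in acetone/DMF diluted in water with 1000 ppm emulsifier. Efficacy was scored as % mites killed after 6 days.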

[7] = system: caterpillars of the armyworm (Spodoptera frugiperda); assay: Spodoptera frugiperda spray test (SPODFR); assay type: in vivo; settings: 100 g/ha, spray, after 7 days
Method in brief: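 Maize leaf discs sprayed with compound in acetone/dimethylformamide diluted in water with 1000 ppm alkylaryl polyglycol ether emulsifier, dried, then infested with armyworm caterpillars. Efficacy in % after 7 days (100% = all caterpillars killed, 0% = none).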

[8] = system: larvae of the mustard beetle (Phaedon cochleariae); assay: Phaedon cochleariae spray test (PHAECO); assay type: in vivo; settings: 100 g/ha, after 7 days
Method in brief: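 Compound dissolved in acetone/dimethylformamide and diluted with water containing 1000 ppm alkylaryl polyglycol ether emulsifier to test concentrations. Efficacy in % scored after 7 days: 100% means all beetle larvae killed, 0% none killed.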

[9] = log P by HPLC (EEC directive 79/831 Annex V.A8); assay type: physicochemical; settings: 43° C., acidic range pH 2.7; for log P: HPLC, reversed-phase column (C18)
Method in brief: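 Measured by reversed-phase HPLC on a C18 column at 43 °C per EEC directive 79/831 Annex V.A8. Calibration used unbranched alkan-2-ones (C3–C16) of known log P.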

[10] = system: engorged adult female cattle ticks (Boophilus microplus); assay: Boophilus microplus injection test (BOOPMI inj); assay type: in vivo; settings: assessed after 7 days
Method in brief: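 1 μl of compound in DMSO is injected into the abdomen of 5 engorged females per group, which are then held in a climate-controlled room. After 7 days, egg-laying and egg fertility are scored, with unclear eggs kept about 42 days until hatch; 100% means no fertile eggs laid.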

[11] = system: cattle ticks (Boophilus microplus) Parkhurst strain, SP-resistant; assay: Boophilus microplus dip test; assay type: in vivo; settings: 20 ppm, assessed after 7 days
Experimental: Boophilus microplus—Dip Test
Test animals: cattle ticks (Boophilus microplus) Parkhurst strain, SP-resistant
Solvent: dimethyl sulphoxide
10 mg of active compound are dissolved in 0.5 ml of dimethyl sulphoxide. For the purpose of producing a suitable formulation, the active compound solution is diluted with water to the concentration desired in each case.
This active compound preparation is pipetted into tubes. 8-10 engorged adult female cattle ticks (Boophilus microplus) are transferred into a further tube with holes. The tube is immersed into the active compound formulation, and all the ticks are completely wetted. After the liquid has run out, the ticks are transferred on filter discs into plastic dishes and stored in a climate-controlled room.
The efficacy is assessed after 7 days by laying of fertile eggs. Eggs which are not visibly fertile are stored in a climate-controlled cabinet until the larvae hatch after about 42 days. An efficacy of 100% means that none of the ticks has laid any fertile eggs; 0% means that all the eggs are fertile.

[12] = system: Tick nymphs (Amblyomma hebraeum); assay: Amblyomma hebraeum test (tick nymph immersion); assay type: in vivo; settings: 100 ppm, after 42 days
Experimental: Amblyomma Hebaraeum Test Solvent: dimethyl sulphoxide To produce a suitable active compound formulation, 10 mg of active compound are mixed with 0.5 ml of dimethyl sulphoxide, and the concentrate is diluted with water to the desired concentration. Tick nymphs (Amblyomma hebraeum) are placed into perforated plastic beakers and immersed in the desired concentration for one minute. The ticks are transferred on filter paper into a Petri dish and stored in a climate-controlled cabinet. After 42 days, the kill in % is determined. 100% means that all of the ticks have been killed; 0% means that none of the ticks have been killed.

Structure (SMILES): C#CCn1c(C(=O)NC(c2ccc(Cl)c(C(F)(F)F)c2)C(F)(F)F)cc2cc(C(=O)NC3(C(N)=S)CC3)c(Cl)cc21 (stereo not drawn) [I-19]
efficacy (kill in %) [1]: 100% | % efficacy [2]: 100% | efficacy (kill in %) [3]: 100% | efficacy (kill in %) [4]: 100% | nematicidal efficacy (formation of galls) [5]: 90% | efficacy [6]: 100% | efficacy [7]: 100% | efficacy [8]: 100% | log P [9]: 3.73 | efficacy (laying of fertile eggs) [10]: 100%

log P [9]: 3.46 | chromatographic logP ([9]; reversed-phase C18 HPLC column, pH 2.7, HPLC): 3.56
Structure (SMILES): CCn1c(C(=O)NC(c2ccc(F)c(C(F)(F)F)c2)C(F)(F)F)nc2cc(C(=O)NC3(C(N)=S)CC3)c(Cl)cc21 (stereo not drawn) [I-30, N5-(1-Carbamothioylcyclopropyl)-6-chloro-1-ethyl-N2-{2,2,2-trifluoro-1-[4-fluoro-3-(trifluoromethyl)phenyl]ethyl}-1H-benzimidazole-2,5-dicarboxamide]
efficacy (laying of fertile eggs) [11]: 100% | efficacy (kill in %) [1]: 100% | efficacy (kill in %) [3]: 100% | efficacy (kill in %) [4]: 100% | efficacy [6]: 100% | efficacy [7]: 100% | efficacy [8]: 100% | efficacy (kill in %) [12]: 100% | efficacy (laying of fertile eggs) [10]: 100%
